# Where “and” joins values, the source holds several entries; their conditions need not be identical. Equal values may be shown once.
# Test system: A549 cells
# Experiment: MTT detection method, inhibitory effect against A549 cells
# Format: cell-based
# Description: MTT detection method was used, and MTT is a yellow compound and a dye accepting hydrogen ions, and can be used as the respiratory chain in mitochondria of viable cells. Under the action of succinate dehydrogenase and cytochrome C, the tetrazolium ring broke to form blue formanzan crystal, and the formation amount of formanzan crystal was only directly proportional to the viable counts. The formanzan crystal formed by reduction can dissolve in dimethyl sulfoxide (DMSO), and the optical density (OD) value can be determined at 490 nm using ELISA, to reflect the viable counts.
# • Lung cancer cell lines: A549 and H1299. • Experimental materials: lung cancer cell lines, instruments and tools for cell culture, MTT, the compound mother liquid (10 mmol/L), and the positive control drug Src inhibitor pp1. 1. Specific Method • (3-1) Cell lines A549 and H1299 were recovered, and when the cells were in good conditions, namely cells grew to about 80% after one passage (i.e. the logarithmic growth phase), the cells were planked (96-well plate). • (3-2) Firstly, cells were collected, and the concentration of cell suspension was adjusted with counting chamber. Cells were seeded in 96-well plate at 1000˜10000 cells/well, and the detailed cell numbers in each well were dependent on the growth rate of different cells and the action time of drugs. A549 cells were seeded at 5000 cells, while H1299 cells were also seeded at 5000 cells, 200 μl for each well (100 μl cell suspension+100 μl drug dilution at different concentration gradient). The edge wells (36) were added 200 μl culture media (for prevention of edge effect). • (3-3) After planking and adding drugs, the plate was treated at 24 h, 48 h, and 72 h, and then for coloration, each well was added 200 μl culture media containing 20 μl MTT solution (5 mg/mL). The plate was continually cultured for 1˜4 hours, the incubation was stopped, and the culture supernatant fluid in each well was carefully absorbed. For suspension cells, the culture supernatant fluid in each well need be centrifuged before drawing. 150 μl DMSO was added to each well, and the plate was shaken on a shaking table for 15˜20 min, to allow the crystals to be completely dissolved. • (3-4) Colorimetry: The colorimetry was performed by ELISA, and the optical absorption value of each well was tested at a wavelength of 490 nm or 570 nm, and the result was recorded. • (3-5) Calculation Inhibition ratio=(the control−the drug)/the control×100% • IC50 (50% inhibitory concentration) can be calculated by spass software based on the inhibitory ratio at different concentration. II. Experimental Results • A549 cells were treated at 4 h, 24 h, 48 h, 72 h, and the drug dose was divided into the light concentration group (10 μm, 25 μm, 40 μm) and the high concentration group (50 μm, 80 μm, 100 μm), that were seeded at 6000 cells/well and 5000 cells/well, respectively, to carry out the experiment.
smiles,measurement,setting,value
"Cc1ccc(-c2nn(C(C)(C)C)c3ncnc(N)c23)cc1 [PP1, reference compound]",The inhibitory ratio (%) for three parallel assays,"4 h, 10 μm",14.06% and 5.63% and 10.31%
same,The mean inhibitory ratio (%),"4 h, 10 μm",10.00%
same,The mean inhibitory ratio (%),"4 h, 25 μm",8.44%
same,The inhibitory ratio (%) for three parallel assays,"4 h, 40 μm",31.88% and 35.00% and 23.44%
same,The mean inhibitory ratio (%),"4 h, 40 μm",30.10%
same,The inhibitory ratio (%) for three parallel assays,"4 h, 50 μm",26.86% and 23.43% and 24.00%
same,The mean inhibitory ratio (%),"4 h, 50 μm",24.76%
same,The inhibitory ratio (%) for three parallel assays,"4 h, 80 μm",32.86% and 31.43% and 30.00%
same,The mean inhibitory ratio (%),"4 h, 80 μm",31.43%
same,The inhibitory ratio (%) for three parallel assays,"4 h, 100 μm",44.00% and 43.43%
same,The mean inhibitory ratio (%),"4 h, 100 μm",43.81%
same,The inhibitory ratio (%) for three parallel assays,"24 h, 10 μm",14.13% and 14.78% and 11.09%
same,The mean inhibitory ratio (%),"24 h, 10 μm",13.33%
same,The inhibitory ratio (%) for three parallel assays,"24 h, 25 μm",49.35% and 47.39% and 48.04%
same,The mean inhibitory ratio (%),"24 h, 25 μm",48.26%
same,The inhibitory ratio (%) for three parallel assays,"24 h, 40 μm",63.91% and 64.13% and 64.35%
same,The mean inhibitory ratio (%),"24 h, 40 μm",64.13%
same,The inhibitory ratio (%) for three parallel assays,"24 h, 50 μm",56.46% and 55.83% and 56.04%
same,The mean inhibitory ratio (%),"24 h, 50 μm",56.11%
same,The inhibitory ratio (%) for three parallel assays,"24 h, 80 μm",74.79% and 72.92% and 73.54%
same,The mean inhibitory ratio (%),"24 h, 80 μm",73.75%
same,The inhibitory ratio (%) for three parallel assays,"24 h, 100 μm",80.63% and 79.58% and 79.17%
same,The mean inhibitory ratio (%),"24 h, 100 μm",79.79%
same,The inhibitory ratio (%) for three parallel assays,"48 h, 10 μm",48.91% and 48.44% and 45.94%
same,The mean inhibitory ratio (%),"48 h, 10 μm",47.76%
same,The inhibitory ratio (%) for three parallel assays,"48 h, 25 μm",66.88% and 67.03% and 66.72%
same,The mean inhibitory ratio (%),"48 h, 25 μm",66.88%
same,The inhibitory ratio (%) for three parallel assays,"48 h, 40 μm",74.53% and 74.22%
same,The mean inhibitory ratio (%),"48 h, 40 μm",74.43%
same,The inhibitory ratio (%) for three parallel assays,"48 h, 50 μm",69.50% and 67.00% and 66.67%
same,The mean inhibitory ratio (%),"48 h, 50 μm",67.72%
same,The inhibitory ratio (%) for three parallel assays,"48 h, 80 μm",81.17% and 80.00% and 80.17%
same,The mean inhibitory ratio (%),"48 h, 80 μm",80.44%
same,The inhibitory ratio (%) for three parallel assays,"48 h, 100 μm",82.50% and 81.33% and 82.33%
same,The mean inhibitory ratio (%),"48 h, 100 μm",82.06%
same,The inhibitory ratio (%) for three parallel assays,"72 h, 10 μm",63.42% and 63.87% and 64.59%
same,The mean inhibitory ratio (%),"72 h, 10 μm",63.96%
same,The inhibitory ratio (%) for three parallel assays,"72 h, 25 μm",83.06% and 82.97% and 83.69%
same,The mean inhibitory ratio (%),"72 h, 25 μm",83.24%
same,The inhibitory ratio (%) for three parallel assays,"72 h, 40 μm",86.76% and 86.13% and 87.66%
same,The mean inhibitory ratio (%),"72 h, 40 μm",86.85%
same,The inhibitory ratio (%) for three parallel assays,"72 h, 50 μm",82.70% and 81.35% and 82.43%
same,The mean inhibitory ratio (%),"72 h, 50 μm",82.16%
same,The inhibitory ratio (%) for three parallel assays,"72 h, 80 μm",85.95% and 86.22% and 86.08%
same,The mean inhibitory ratio (%),"72 h, 80 μm",86.08%
same,The inhibitory ratio (%) for three parallel assays,"72 h, 100 μm",85.41% and 85.68%
same,The mean inhibitory ratio (%),"72 h, 100 μm",85.59%
